Data taken from US8404718B2, “Combinations of pyrazole kinase inhibitors” (Astex Therapeutics Limited, priority 2005, dated 2013).

Assays:
[1] = tested on: human colon carcinoma cell line HCT 116; test: Anti-proliferative activity, Alamar Blue assay; format: cell-based; details: 72 hours compound incubation, read-out: IC50, inhibition of cell growth, HCT 116
Method: The anti-proliferative activities of the combinations of the invention, as well as the individual components of the combinations, are determined by measuring the ability of the compounds to inhibition of cell growth in a number of cell lines. Inhibition of cell growth is measured using the Alamar Blue assay (Nociari, M. M, Shalev, A., Benias, P., Russo, C. Journal of Immunological Methods 1998, 213, 157-167). The method is based on the ability of viable cells to reduce resazurin to its fluorescent product resorufin. For each proliferation assay cells are plated onto 96 well plates and allowed to recover for 16 hours prior to the addition of inhibitor compounds for a further 72 hours. At the end of the incubation period 10% (v/v) Alamar Blue is added and incubated for a further 6 hours prior to determination of fluorescent product at […]. In the case of the non-proliferating cell assay cells are maintained at confluence for 96 hour prior to the addition of inhibitor compounds for a further 72 hours. The number of viable cells is determined by Alamar Blue assay as before. All cell lines are obtained from ECACC (European Collection of cell Cultures).

[2] = molecular target: Activated CDK2/CyclinA (Homo sapiens, UniProt P24941); test: Activated CDK2/CyclinA kinase inhibitory activity assay (IC50), Example 250A; format: biochemical
Method: Compounds of the invention were tested for kinase inhibitory activity using the following protocol.
The reaction is allowed to proceed for 2 to 4 hours before being stopped with an excess of ortho-phosphoric acid (5 μl at 2%).
γ^33P-ATP which remains unincorporated into the histone H1 is separated from phosphorylated histone H1 on a Millipore MAPH filter plate. The wells of the MAPH plate are wetted with 0.5% orthophosphoric acid, and then the results of the reaction are filtered with a Millipore vacuum filtration unit through the wells. Following filtration, the residue is washed twice with 200 μl of 0.5% orthophosphoric acid. Once the filters have dried, 20 μl of Microscint 20 scintillant is added, and then counted on a Packard Topcount for 30 seconds.

| SMILES | IC50 [1] | IC50 [2] |
| --- | --- | --- |
| CN1CCN(c2cc(F)cc(C(=O)Nc3c[nH]nc3C(=O)NC3CCCCC3)c2)CC1 [Example 215] | < 20 µM | < 20 µM |
| O=C(N[C@H]1CC[C@H](N2CCS(=O)(=O)CC2)CC1)c1n[nH]cc1NC(=O)c1c(F)cccc1F [Example 132] | < 20 µM | < 20 µM |
| CN1CCC(NC(=O)c2n[nH]cc2NC(=O)c2c(F)cccc2Cl)CC1 [Example 186] | < 20 µM | < 20 µM |
| Cc1nn(C)c(C)c1CNC(=O)c1n[nH]cc1NC(=O)c1c(F)cccc1F [Example 99] | < 100 µM | < 20 µM |
| O=C(NC1CCN(c2cccc(Cl)n2)CC1)c1n[nH]cc1NC(=O)c1c(F)cccc1F [Example 115] | < 20 µM | < 20 µM |
| O=C(NC1CCNCC1)c1n[nH]cc1NC(=O)c1c(F)cc(F)cc1F [Example 148] | < 20 µM | < 20 µM |
| COc1cccc(F)c1C(=O)Nc1c[nH]nc1C(=O)NC1CCN(C)CC1 [Example 202] | < 20 µM | < 20 µM |
| O=C(NCc1ccncc1)c1n[nH]cc1NC(=O)c1c(F)cccc1F [Example 104] | < 20 µM | < 20 µM |
| O=C(NC1CCN(CC2CCOC2)CC1)c1n[nH]cc1NC(=O)c1c(F)cccc1F (stereo not shown) [Example 133] | < 20 µM | < 20 µM |
| O=C(NC1CCC(N2CCSCC2)CC1)c1n[nH]cc1NC(=O)c1c(F)cccc1F (stereo not shown) [Example 121] | < 20 µM | < 20 µM |
| O=C(N[C@H]1CC[C@H](O)CC1)c1n[nH]cc1NC(=O)c1c(F)cccc1Cl [Example 155] | < 20 µM | < 20 µM |
| CC1CCC(NC(=O)c2n[nH]cc2NC(=O)c2c(F)cccc2F)CC1 (stereo not shown) [Example 113] | < 20 µM | < 20 µM |
| CN1CCN([C@H]2CC[C@@H](NC(=O)c3n[nH]cc3NC(=O)c3c(F)cccc3F)CC2)CC1 [Example 118] | < 20 µM | < 20 µM |
| CC(C)(C)OC(=O)N1CCC(NC(=O)c2n[nH]cc2NC(=O)c2c(F)cc(F)cc2F)CC1 [Example 136] | < 20 µM | < 20 µM |
| O=C(Nc1c[nH]nc1C(=O)NC1CCNCC1)c1ccccc1Br [Example 201] | < 20 µM | < 20 µM |
| O=C(NC1CCN(CC(F)(F)F)CC1)c1n[nH]cc1NC(=O)c1c(F)cccc1F [Example 114] | < 20 µM | < 20 µM |
| COc1cscc1C(=O)Nc1c[nH]nc1C(=O)N[C@H]1CC[C@H](O)CC1 [Example 158] | < 20 µM | < 20 µM |
| O=C(NC1CCN(c2ccccn2)CC1)c1n[nH]cc1NC(=O)c1c(F)cccc1F [Example 112] | < 20 µM | < 20 µM |
| O=C(Nc1c[nH]nc1C(=O)NC1CCNCC1)c1ccccc1OC(F)(F)F [Example 196] | < 20 µM | < 20 µM |
| O=C(N[C@H]1CC[C@H](N2CCOCC2)CC1)c1n[nH]cc1NC(=O)c1c(F)cccc1F [Example 167] | < 20 µM | < 20 µM |

| SMILES | IC50 [1] | IC50 [2] |
| --- | --- | --- |
| CN1CCC(NC(=O)c2n[nH]cc2NC(=O)c2cccc(Cl)c2Cl)CC1 [Example 213] | < 20 µM | < 20 µM |
| O=C(Nc1c[nH]nc1C(=O)NCC1CC1)c1ccc(N2CCOCC2)cc1Cl [Example 182] | < 100 µM | < 20 µM |
| O=C(NC1CCN(CC2CC2)CC1)c1n[nH]cc1NC(=O)c1c(F)cccc1F [Example 109] | < 20 µM | < 20 µM |
| CS(=O)(=O)NC[C@H]1CC[C@H](NC(=O)c2n[nH]cc2NC(=O)c2c(F)cccc2F)CC1 [Example 164] | < 20 µM | < 20 µM |
| O=C(NCc1cccnc1)c1n[nH]cc1NC(=O)c1c(F)cccc1F [Example 103] | < 20 µM | < 20 µM |
| O=C(NCc1ccco1)c1n[nH]cc1NC(=O)c1c(F)cccc1F [Example 107] | < 20 µM | < 20 µM |
| Cc1cc(CNC(=O)c2n[nH]cc2NC(=O)c2c(F)cccc2F)no1 [Example 101] | < 20 µM | < 20 µM |
| O=C(Nc1c[nH]nc1C(=O)NCC1CC1)c1cccc2c1OCCO2 [Example 178] | < 20 µM | < 20 µM |
| CCOc1ccccc1C(=O)Nc1c[nH]nc1C(=O)NC1CCNCC1 [Example 198] | < 20 µM | < 20 µM |
| O=C(NCC1CCCO1)c1n[nH]cc1NC(=O)c1c(F)cccc1F (stereo not shown) [Example 100] | < 20 µM | < 20 µM |
| C[N+]1([O-])CCC(NC(=O)c2n[nH]cc2NC(=O)c2c(F)cccc2F)CC1 (stereo not shown) [Example 162] | < 20 µM | < 20 µM |
| O=C(NC1CCN(c2ncccn2)CC1)c1n[nH]cc1NC(=O)c1c(F)cccc1F [Example 110] | < 20 µM | < 20 µM |
| O=C(Nc1c[nH]nc1C(=O)NC1CCNCC1)c1ccccc1N1CCOCC1 [Example 199] | < 20 µM | < 20 µM |
| O=C(N[C@H]1CCCNC1)c1n[nH]cc1NC(=O)c1c(Cl)cccc1Cl [Example 208] | < 20 µM | < 20 µM |
| COc1ccccc1C(=O)Nc1c[nH]nc1C(=O)NC1CCNCC1 [Example 190] | < 20 µM | < 20 µM |
| NC[C@H]1CC[C@H](NC(=O)c2n[nH]cc2NC(=O)c2c(F)cccc2F)CC1 [Example 163] | < 20 µM | < 20 µM |
| CN1CCC(NC(=O)c2n[nH]cc2NC(=O)c2c(Cl)cccc2Cl)CC1 [Example 187] | < 20 µM | < 20 µM |
| O=C(Nc1c[nH]nc1C(=O)N[C@H]1CC[C@H](O)CC1)Nc1c(F)cccc1F [Example 160] | < 100 µM | < 20 µM |
| O=C(N[C@H]1CCCNC1)c1n[nH]cc1NC(=O)c1c(F)cccc1F [Example 152] | < 20 µM | < 20 µM |
| O=C(N[C@H]1CC[C@H](NC2CCOCC2)CC1)c1n[nH]cc1NC(=O)c1c(F)cccc1F [Example 116] | < 20 µM | < 20 µM |

| SMILES | IC50 [1] | IC50 [2] |
| --- | --- | --- |
| CN1CCC(NC(=O)c2n[nH]cc2NC(=O)c2cc(Cl)ccc2Cl)CC1 [Example 212] | < 20 µM | < 20 µM |
| CN(C)[C@H]1CC[C@H](NC(=O)c2n[nH]cc2NC(=O)c2c(F)cccc2F)CC1 [Example 124] | < 20 µM | < 20 µM |
| Cc1ccc(C(=O)Nc2c[nH]nc2C(=O)NC2CCN(C)CC2)cc1 [Example 189] | < 20 µM | < 20 µM |
| CC(C)(C)N1CCC(NC(=O)c2n[nH]cc2NC(=O)c2c(F)cccc2F)CC1 [Example 179] | < 20 µM | < 20 µM |
| O=C(NC1CCC(CO)CC1)c1n[nH]cc1NC(=O)c1c(F)cccc1F (stereo not shown) [Example 120] | < 20 µM | < 20 µM |
| CO[C@H]1CC[C@H](NC(=O)c2n[nH]cc2NC(=O)c2c(F)cccc2F)CC1 [Example 137] | < 20 µM | < 20 µM |
| O=C1CC[C@H](NC(=O)c2n[nH]cc2NC(=O)c2c(F)cccc2F)CN1 [Example 139] | < 20 µM | < 20 µM |
| CN1CCC(NC(=O)c2n[nH]cc2NC(=O)c2ccccc2Cl)CC1 [Example 211] | < 20 µM | < 20 µM |
| COc1ccccc1CNC(=O)c1n[nH]cc1NC(=O)c1c(F)cccc1F [Example 96] | < 20 µM | < 20 µM |
| COc1ccc(F)cc1C(=O)Nc1c[nH]nc1C(=O)NC1CCN(C)CC1 [Example 204] | < 20 µM | < 20 µM |
| O=C(Nc1c[nH]nc1C(=O)N[C@H]1CC[C@H](O)CC1)c1cccc2c1OCCO2 [Example 159] | < 20 µM | < 20 µM |
| COc1cccc(F)c1C(=O)Nc1c[nH]nc1C(=O)N[C@H]1CC[C@H](O)CC1 [Example 154] | < 20 µM | < 20 µM |
| COc1ccccc1C(=O)Nc1c[nH]nc1C(=O)N[C@H]1CC[C@H](O)CC1 [Example 153] | < 20 µM | < 20 µM |
| COCCN1CCC(NC(=O)c2n[nH]cc2NC(=O)c2c(Cl)cccc2Cl)CC1 [Example 209] | < 20 µM | < 20 µM |
| O=C(NC[C@H]1CC[C@H](NC(=O)c2n[nH]cc2NC(=O)c2c(F)cccc2F)CC1)OCc1ccccc1 [Example 130] |  | < 20 µM |
| CC(NC(=O)c1n[nH]cc1NC(=O)c1c(F)cccc1F)c1ccccc1 (stereo not shown) [Example 108] | < 100 µM | < 20 µM |
| O=C(NC1CCNCC1)c1n[nH]cc1NC(=O)c1c(Cl)cncc1Cl [Example 194] | < 20 µM | < 20 µM |
| O=C(Nc1c[nH]nc1C(=O)NC1CCNCC1)c1ccccc1OCc1ccccc1 [Example 200] | < 20 µM | < 20 µM |
| O=C(NCC1CCNCC1)c1n[nH]cc1NC(=O)c1c(F)cccc1F [Example 111] | < 20 µM | < 20 µM |
| CC(C)(C)OC(=O)N1CCC(NC(=O)c2n[nH]cc2NC(=O)c2ccccc2)CC1 [Example 172] |  | < 20 µM |
